The text below walks through data of patent US9839642B2, “Beta-tetrazolyl-propionic acids as metallo-beta-lactamase inhibitors” (priority 2014, dated 2017).

Assay [1] has as its target VIM-1 (Pseudomonas aeruginosa, UniProt A0A0F7KYQ8). In words: Enzyme activity: determination of IC50, fluorescence assay with CCF2-FA substrate. Format: biochemical. To be noted: enzyme 30 pM, CCF2-FA 1.25 μM, 2 hours at 25° C.; read-out: VIM1 IC50. The method, boiled down:
(§1)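 Read-out: fluorescence, ex 405 nm / em 460 nm, after 2 h at 25° C with 1.25 μM CCF2-FA. Buffer 100 mM KH2PO4 pH 7, 0.005% Tween-20, 10 μM ZnSO4; enzyme 1 pM NDM-1, 2 pM IMP-1, 30 pM VIM-1. IC50 by 4-parameter fit.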

Assay [2] has as its target NDM-1 (Klebsiella pneumoniae, UniProt C7C422). Described as above. Format: biochemical. To be noted: enzyme 1 pM, CCF2-FA 1.25 μM, 2 hours at 25° C.; read-out: NDM1 IC50. The method, boiled down: as §1
Assay [3] concerns the target IMP-1 (Serratia marcescens, UniProt P52699). The assay is described as above. It counts as biochemical. As to conditions: enzyme 2 pM, CCF2-FA 1.25 μM, 2 hours at 25° C.; read-out: IMP1 IC50. The method, boiled down:
as §1

Assay [4] deals with Escherichia coli expressing NDM-1 (CLB30016). The assay is described as follows: Antibiotic potentiation activity: synergistic concentration (MITC95) with imipenem, growth by OD600. Format: cell-based. To be noted: 95% inhibition of bacterial growth, strain CLB30016. The method, boiled down: (§2)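 Strains grown overnight at 35° C, resuspended in saline, diluted 1:100 into 1.1×CAMHB; imipenem at 1 μg/ml or 4 μg/ml with test compound 200 μM to 0.195 μM. Incubated 22 hours to 24 hours at 35° C, OD600 read; MITC95 is lowest compound concentration inhibiting 95% of growth.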

Assay [5] deals with Serratia marcescens expressing IMP-1 (CL5741). Described as above. It counts as cell-based. To be noted: 95% inhibition of bacterial growth, strain CL5741. The method, boiled down:
as §2

Assay [6] has as its system Klebsiella pneumoniae expressing VIM-1 (IHMA599644). The assay is described as above. To be noted: 95% inhibition of bacterial growth, strain IHMA599644. It counts as cell-based. The method, boiled down:
as §2

Chain of NDM-1 (C7C422 29-270, looked up, species assumed): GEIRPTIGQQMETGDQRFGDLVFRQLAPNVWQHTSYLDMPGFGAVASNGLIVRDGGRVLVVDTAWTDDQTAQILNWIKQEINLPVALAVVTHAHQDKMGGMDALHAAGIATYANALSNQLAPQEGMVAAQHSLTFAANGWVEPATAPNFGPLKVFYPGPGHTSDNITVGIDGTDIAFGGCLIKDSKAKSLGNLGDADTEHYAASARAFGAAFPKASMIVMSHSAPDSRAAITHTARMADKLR
Chain of IMP-1 (P52699 19-246, looked up, species assumed): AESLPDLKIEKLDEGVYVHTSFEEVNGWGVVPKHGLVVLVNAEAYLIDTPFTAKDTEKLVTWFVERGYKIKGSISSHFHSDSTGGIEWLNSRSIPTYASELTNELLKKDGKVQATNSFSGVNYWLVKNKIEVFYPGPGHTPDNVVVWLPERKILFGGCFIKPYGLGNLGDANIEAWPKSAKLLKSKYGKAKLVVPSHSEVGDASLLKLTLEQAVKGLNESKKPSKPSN

In general, IC50 refers to the midpoint of a concentration-inhibition curve. In the case of `CCC[C@H](C(=O)O)[C@H](Cc1ccc(NCCN2CCCCC2)cc1)c1nn[nH]n1` [Example 217, (2S)-2-[(1S)-2-{4-[(2-piperidin-1-ylethyl)amino]phenyl}-1-(2H-tetrazol-5-yl)ethyl]pentanoic acid], the IC50 was 38 nM in assay [1], 500 nM in assay [2] and 2400 nM in assay [3]. Besides, the “NDM1 EC30016 MITC95” value in assay [4] was 12.5 µM. For the same compound, the “IMP1 SM5741 MITC95” value in assay [5] is 50 µM. The “VIM1 KP599644 MITC95” value in assay [6] worked out at 50 µM.

Consider `CCC[C@H](C(=O)O)[C@H](Cc1ccc(NCC(=O)N(C)C)cc1)c1nn[nH]n1` [Example 218, (2S)-2-[(1S)-2-(4-{[2-(dimethylamino)-2-oxoethyl]amino}phenyl)-1-(2H-tetrazol-5-yl)ethyl]pentanoic acid], for which the IC50 in assay [1] was 21 nM; in assay [2] it was 40 nM; in assay [3] it was 460 nM. For the same compound, the “NDM1 EC30016 MITC95” value in assay [4] amounted to 31 µM. In addition, the “IMP1 SM5741 MITC95” value in assay [5] came to 25 µM. Besides, the “VIM1 KP599644 MITC95” value in assay [6] worked out at 50 µM.

As for `CCC[C@H](C(=O)O)[C@H](Cc1ccc(NCCN2CCN(C(C)C)CC2)cc1)c1nn[nH]n1` [Example 219, (2S)-2-[(1S)-2-[4-({2-[4-(1-methylethyl)piperazin-1-yl]ethyl}amino)phenyl]-1-(2H-tetrazol-5-yl)ethyl]pentanoic acid], the concentration for half-maximal inhibition (IC50) stood at 93 nM in assay [1], 210 nM in assay [2] and 1000 nM in assay [3]. For the same compound, the “NDM1 EC30016 MITC95” value in assay [4] came out at 25 µM. For the same compound, in assay [5], the “IMP1 SM5741 MITC95” value was 25 µM. Further, the “VIM1 KP599644 MITC95” value in assay [6] was 100 µM.

Regarding `CCC[C@H](C(=O)O)[C@H](Cc1ccc(NCCN2CCCC(O)C2)cc1)c1nn[nH]n1` (stereo partly drawn) [Example 220, (2S)-2-[(1S)-2-(4-{[2-(3-hydroxypiperidin-1-yl)ethyl]amino}phenyl)-1-(2H-tetrazol-5-yl)ethyl]pentanoic acid], the results for the half-inhibitory concentration (IC50) in assay [1], in assay [2] and in assay [3] were 75 nM, 360 nM and 1600 nM, respectively. Further, in assay [4], the “NDM1 EC30016 MITC95” value came to 25 µM. Also, the “IMP1 SM5741 MITC95” value in assay [5] was found to be 50 µM. Further, the “VIM1 KP599644 MITC95” value in assay [6] came out at 50 µM.

`CCC[C@H](C(=O)O)[C@H](Cc1ccc(NCCn2ccnn2)cc1)c1nn[nH]n1` [Example 221, (2S)-2-[(1S)-1-(2H-tetrazol-5-yl)-2-(4-{[2-(1H-1,2,3-triazol-1-yl)ethyl]amino}phenyl)ethyl]pentanoic acid]: the IC50 in assay [1] was determined as 27 nM; in assay [2], 84 nM; in assay [3], 220 nM. The “NDM1 EC30016 MITC95” value in assay [4] was 31 µM. The “IMP1 SM5741 MITC95” value in assay [5] worked out at 16 µM. In addition, the “VIM1 KP599644 MITC95” value in assay [6] worked out at 100 µM.

For the compound `CCC[C@H](C(=O)O)[C@H](Cc1ccc(NC(C)CN)cc1)c1nn[nH]n1` (stereo partly drawn) [Example 222, (2S)-2-[(1S)-2-{4-[(2-amino-1-methylethyl)amino]phenyl}-1-(2H-tetrazol-5-yl)ethyl]pentanoic acid], the values for the IC50 in assay [1], in assay [2] and in assay [3] were 9.1 nM, 710 nM and 1700 nM, respectively. The “NDM1 EC30016 MITC95” value in assay [4] came to 18.8 µM. In addition, the “IMP1 SM5741 MITC95” value in assay [5] was 25 µM. For the same compound, the “VIM1 KP599644 MITC95” value in assay [6] is 25 µM.

With `CCC[C@H](C(=O)O)[C@H](Cc1ccc(NC2CCCN(CCC)C2)cc1)c1nn[nH]n1` (stereo partly drawn) [Example 223, (2S)-2-[(1S)-2-{4-[(1-propylpiperidin-3-yl)amino]phenyl}-1-(2H-tetrazol-5-yl)ethyl]pentanoic acid], the values for the IC50 in assay [1], in assay [2] and in assay [3] were 71 nM, 500 nM and 1300 nM, respectively. For the same compound, the “NDM1 EC30016 MITC95” value in assay [4] is 38 µM. Besides, the “IMP1 SM5741 MITC95” value in assay [5] stood at 25 µM. In addition, the “VIM1 KP599644 MITC95” value in assay [6] was found to be 75 µM.
